Data on one compound can be found in patent publication US10953011B2, “Methods of treating virally associated cancers with histone deacetylase inhibitors” (priority 2019, dated 2021).

Like-named read-outs stand apart in the source and are kept apart here.

One may read the IC50 as the concentration that gives 50% inhibition. Usually Tmax stands for the time from dosing to the highest level.

One series has as its system HDAC 1-3. To be noted: descriptive statement; cited from earlier work.
In another series the target is T1, HDAC11 (Homo sapiens, UniProt Q96DB2).
T1 sequence (Q96DB2 1-347): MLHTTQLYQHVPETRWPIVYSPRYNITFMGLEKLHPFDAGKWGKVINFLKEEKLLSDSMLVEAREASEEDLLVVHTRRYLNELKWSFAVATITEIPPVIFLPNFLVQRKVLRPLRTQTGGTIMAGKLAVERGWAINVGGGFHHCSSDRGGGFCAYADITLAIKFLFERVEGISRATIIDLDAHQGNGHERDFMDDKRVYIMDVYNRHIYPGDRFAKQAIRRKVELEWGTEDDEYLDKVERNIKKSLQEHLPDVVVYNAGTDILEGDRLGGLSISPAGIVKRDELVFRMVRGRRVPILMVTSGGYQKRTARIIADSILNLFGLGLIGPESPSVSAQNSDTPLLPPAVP
Kind of series: in vitro HDAC inhibition assay (fluorescence). The series is classed as biochemical. The following applies: 1 h pre-incubation; 2 μM HDAC Substrate Class 2a; read-out: IC50 (μM) HDAC11. As for the experimental part:
(§1) Briefly, all of the compounds are dissolved in DMSO. A series of dilutions of the compounds were prepared with 10% DMSO in HDAC assay buffer and 5 μl of the dilution was added to a 50 μl reaction so that the final concentration of DMSO is 1% in all of reactions. The compounds were pre-incubated in duplicate at RT for 1 hour in a mixture containing HDAC assay buffer, 5 μg BSA, HDAC enzyme (see Table 7) and a the particular HDACi. After 1 hour, the enzymatic reactions were initiated by the addition of HDAC substrate (BPS Bioscience) to a final concentration of 10 μM or 2 μM. The enzymatic reaction proceeded for 30 minutes at 37° C.
(§2) HDAC activity assays were performed in duplicates at each concentration. The fluorescent intensity data were analyzed using the computer software, Graphpad Prism. In the absence of the compound, the fluorescent intensity (Ft) in each data set was defined as 100% activity. In the absence of HDAC, the fluorescent intensity (Fb) in each data set was defined as 0% activity. The percent activity in the presence of each compound was calculated according to the following equation: % activity=(F−Fb)/(Ft−Fb), where F=the fluorescent intensity in the presence of the compound.
(§3) The values of % activity versus a series of compound concentrations were then plotted using non-linear regression analysis of Sigmoidal dose-response curve generated with the equation Y=B+(T−B)/1+10^((Log EC50-X)×Hill Slope), where Y=percent activity, B=minimum percent activity, T=maximum percent activity, X=logarithm of compound and Hill Slope=slope factor or Hill coefficient. The IC50 value was determined by the concentration causing a half-maximal percent activity.

The target in another series is HDAC9 (Homo sapiens, UniProt Q9UKV0). Kind of series: in vitro HDAC inhibition assay (fluorescence). The series is classed as biochemical. To be noted: 1 h pre-incubation; 2 μM HDAC Substrate Class 2a; read-out: IC50 (μM) HDAC9. As for the experimental part: as §1, §2, §3
The target of another series is HDAC4 (Homo sapiens, UniProt P56524). Briefly: in vitro HDAC inhibition assay (fluorescence). It counts as biochemical. To be noted: 1 h pre-incubation; 2 μM HDAC Substrate Class 2a; read-out: IC50 (μM) HDAC4. The protocol: as §1, §2, §3
A further series concerns the target HDAC5 (Homo sapiens, UniProt Q9UQL6). Kind of series: in vitro HDAC inhibition assay (fluorescence). To be noted: 1 h pre-incubation; 2 μM HDAC Substrate Class 2a; read-out: IC50 (μM) HDAC5. It counts as biochemical. As for the experimental part:
as §1, §2, §3

For series [1], the system named is Histone 3 acetylation in peripheral blood mononuclear cells. Kind of series: H3 acetylation in PBMC by flow cytometry. The series is classed as cell-based, human. The source says:
Percentage of cells with H3 acetylation, as determined by flow cytometry, is shown.
Since H3 acetylation is a pharmacodynamic biomarker of Nstat activity, acetylation of H3 was examined in treated cells.
(Flow cytometry measures light scatter and fluorescence of single cells or particles in a stream.)

For a further series, the target named is T2, HDAC8 (Homo sapiens, UniProt Q9BY41).
T2 sequence (Q9BY41 1-377): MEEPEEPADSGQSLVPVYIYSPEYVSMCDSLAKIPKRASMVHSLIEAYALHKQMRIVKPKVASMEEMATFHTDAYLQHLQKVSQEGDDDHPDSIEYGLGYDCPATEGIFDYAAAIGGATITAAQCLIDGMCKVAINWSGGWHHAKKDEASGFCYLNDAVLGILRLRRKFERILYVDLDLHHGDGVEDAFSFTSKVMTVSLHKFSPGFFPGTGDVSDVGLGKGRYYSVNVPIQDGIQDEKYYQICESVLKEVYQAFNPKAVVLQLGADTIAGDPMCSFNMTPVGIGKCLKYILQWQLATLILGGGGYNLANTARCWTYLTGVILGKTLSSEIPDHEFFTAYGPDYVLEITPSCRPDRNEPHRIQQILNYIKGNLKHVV
Briefly: biochemical. The protocol: as §1
HDAC activity assays were performed in duplicates at each concentration. The fluorescent intensity data were analyzed using the computer software, Graphpad Prism. In the absence of the compound, the fluorescent intensity (Ft) in each data set was defined as 100% activity. In the absence of HDAC, the fluorescent intensity (Fb) in each data set was defined as 0% activity. The percent activity in the presence of each compound was calculated according to the following equation: % activity=(F−Fb)/(Ft−Fb), where F=the fluorescent intensity in the presence of the compound. […]

Series [2] is described as follows: Single dose pharmacokinetics of oral nanatinostat in patients. It counts as in vivo, humans. To be noted: human, serum; for AUC: read-out: AUC (ng-h/mL), geometric mean; for AUC(0-t): read-out: AUClast (ng-h/mL), geometric mean; for Cmax: read-out: Cmax (ng/mL), geometric mean; for Tmax: read-out: Tmax (h), median (range).
Where [3] appears, read: 5 mg, A = 5 mg VRx-3996 p.o. and 450 mg Valganciclovir p.o., single dose.
Where [4] appears, read: 10 mg, B = 10 mg VRx-3996 p.o. and 450 mg Valganciclovir p.o., single dose.
Where [5] appears, read: 10 mg, C = 10 mg VRx-3996 p.o. and 900 mg Valganciclovir p.o., single dose.

Sequence of HDAC5 (Q9UQL6 whole entry): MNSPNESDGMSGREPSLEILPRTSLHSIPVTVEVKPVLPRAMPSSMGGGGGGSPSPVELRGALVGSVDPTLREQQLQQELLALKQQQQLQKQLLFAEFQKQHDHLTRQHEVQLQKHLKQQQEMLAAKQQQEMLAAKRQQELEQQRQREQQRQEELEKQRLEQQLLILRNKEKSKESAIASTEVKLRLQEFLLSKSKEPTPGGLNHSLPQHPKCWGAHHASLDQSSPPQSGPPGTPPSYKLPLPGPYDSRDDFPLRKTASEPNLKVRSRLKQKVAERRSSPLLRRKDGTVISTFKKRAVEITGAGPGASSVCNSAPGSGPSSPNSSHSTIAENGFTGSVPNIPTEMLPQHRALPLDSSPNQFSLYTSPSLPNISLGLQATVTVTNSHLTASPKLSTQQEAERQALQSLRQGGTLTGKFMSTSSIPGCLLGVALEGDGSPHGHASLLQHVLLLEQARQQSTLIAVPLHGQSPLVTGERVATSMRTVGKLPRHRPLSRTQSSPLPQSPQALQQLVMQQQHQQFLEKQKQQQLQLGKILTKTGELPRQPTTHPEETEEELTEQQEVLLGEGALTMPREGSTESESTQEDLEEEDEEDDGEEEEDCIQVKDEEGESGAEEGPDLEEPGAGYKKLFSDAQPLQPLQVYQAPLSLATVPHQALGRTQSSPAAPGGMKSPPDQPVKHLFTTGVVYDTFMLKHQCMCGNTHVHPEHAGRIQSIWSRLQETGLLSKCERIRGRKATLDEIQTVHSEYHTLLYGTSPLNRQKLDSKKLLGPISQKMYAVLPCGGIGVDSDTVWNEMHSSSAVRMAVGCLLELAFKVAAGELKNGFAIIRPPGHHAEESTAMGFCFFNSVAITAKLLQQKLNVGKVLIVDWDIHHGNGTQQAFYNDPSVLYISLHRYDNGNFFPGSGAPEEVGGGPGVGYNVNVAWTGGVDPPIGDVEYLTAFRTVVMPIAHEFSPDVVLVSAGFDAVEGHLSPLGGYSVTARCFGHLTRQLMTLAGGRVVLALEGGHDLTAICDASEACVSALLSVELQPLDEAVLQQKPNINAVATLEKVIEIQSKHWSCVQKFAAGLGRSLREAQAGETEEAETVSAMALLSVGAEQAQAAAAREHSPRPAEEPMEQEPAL
Sequence of HDAC9 (Q9UKV0 whole entry): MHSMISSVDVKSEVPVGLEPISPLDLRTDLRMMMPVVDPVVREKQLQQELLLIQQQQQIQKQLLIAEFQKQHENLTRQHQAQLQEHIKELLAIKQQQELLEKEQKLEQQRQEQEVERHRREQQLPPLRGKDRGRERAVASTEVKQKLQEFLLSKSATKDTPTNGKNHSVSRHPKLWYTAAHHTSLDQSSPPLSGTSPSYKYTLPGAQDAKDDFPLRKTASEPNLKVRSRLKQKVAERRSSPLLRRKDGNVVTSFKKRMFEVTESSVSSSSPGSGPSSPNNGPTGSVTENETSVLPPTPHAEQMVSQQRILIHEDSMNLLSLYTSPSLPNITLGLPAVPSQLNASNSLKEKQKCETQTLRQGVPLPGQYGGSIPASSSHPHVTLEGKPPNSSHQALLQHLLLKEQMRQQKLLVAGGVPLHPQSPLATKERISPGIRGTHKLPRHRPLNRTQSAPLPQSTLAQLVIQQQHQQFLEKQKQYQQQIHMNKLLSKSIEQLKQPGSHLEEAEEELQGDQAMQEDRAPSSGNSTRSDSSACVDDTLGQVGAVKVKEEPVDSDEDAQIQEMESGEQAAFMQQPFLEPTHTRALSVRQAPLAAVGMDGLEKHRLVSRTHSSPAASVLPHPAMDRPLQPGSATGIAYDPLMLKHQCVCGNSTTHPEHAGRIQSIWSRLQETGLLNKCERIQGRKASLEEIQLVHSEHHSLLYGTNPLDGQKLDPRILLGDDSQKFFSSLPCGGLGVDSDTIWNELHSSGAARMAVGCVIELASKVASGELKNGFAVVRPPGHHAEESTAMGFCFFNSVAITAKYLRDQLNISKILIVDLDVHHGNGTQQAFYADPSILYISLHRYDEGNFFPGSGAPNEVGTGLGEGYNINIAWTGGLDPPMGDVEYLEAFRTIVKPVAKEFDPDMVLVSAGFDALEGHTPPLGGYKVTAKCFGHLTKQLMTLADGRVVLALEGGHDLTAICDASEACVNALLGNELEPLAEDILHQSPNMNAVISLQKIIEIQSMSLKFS
Sequence of HDAC4 (P56524 whole entry): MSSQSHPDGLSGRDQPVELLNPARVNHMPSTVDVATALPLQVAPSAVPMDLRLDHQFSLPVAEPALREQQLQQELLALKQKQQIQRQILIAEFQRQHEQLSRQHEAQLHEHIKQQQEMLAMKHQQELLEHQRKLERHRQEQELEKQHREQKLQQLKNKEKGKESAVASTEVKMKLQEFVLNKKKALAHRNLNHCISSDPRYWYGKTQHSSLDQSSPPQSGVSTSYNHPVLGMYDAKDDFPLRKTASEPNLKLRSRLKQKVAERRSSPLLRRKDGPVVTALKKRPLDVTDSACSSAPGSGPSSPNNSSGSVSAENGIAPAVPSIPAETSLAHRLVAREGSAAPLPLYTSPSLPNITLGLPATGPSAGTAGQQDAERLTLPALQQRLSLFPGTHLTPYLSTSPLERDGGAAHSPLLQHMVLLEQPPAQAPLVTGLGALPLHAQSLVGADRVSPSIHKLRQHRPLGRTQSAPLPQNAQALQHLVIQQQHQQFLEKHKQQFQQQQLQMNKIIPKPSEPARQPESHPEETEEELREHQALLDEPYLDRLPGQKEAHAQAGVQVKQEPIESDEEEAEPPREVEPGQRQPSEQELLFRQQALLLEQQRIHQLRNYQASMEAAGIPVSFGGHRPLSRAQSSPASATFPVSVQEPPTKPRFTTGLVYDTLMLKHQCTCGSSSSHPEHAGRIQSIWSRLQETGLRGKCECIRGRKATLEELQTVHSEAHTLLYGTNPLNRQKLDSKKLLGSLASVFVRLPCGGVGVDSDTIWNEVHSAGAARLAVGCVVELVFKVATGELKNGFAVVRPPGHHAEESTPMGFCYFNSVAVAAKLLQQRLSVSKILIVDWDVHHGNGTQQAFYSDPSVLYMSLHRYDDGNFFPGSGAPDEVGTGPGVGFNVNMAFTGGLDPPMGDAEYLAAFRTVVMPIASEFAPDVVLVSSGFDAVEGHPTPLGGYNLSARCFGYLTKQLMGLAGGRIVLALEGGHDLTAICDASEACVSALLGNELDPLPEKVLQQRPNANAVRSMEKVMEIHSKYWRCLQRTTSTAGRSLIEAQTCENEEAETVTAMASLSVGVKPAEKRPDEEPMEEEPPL

`O=C(NO)c1cnc(N2C[C@@H]3[C@H](C2)[C@H]3NCc2ccc3cc(F)ccc3n2)nc1` [Nanatinostat, 2-((1R,5S,6s)-6-(((6-fluoroquinolin-2-yl)methyl)amino)-3-azabicyclo[3.1.0]hexan-3-yl)-N-hydroxypyrimidine-5-carboxamide]: the “Activity against HDAC 1-3” value with HDAC 1-3 is “active against HDAC 1-3”. In addition, the concentration for half-maximal inhibition (IC50) on HDAC11 worked out at 2.8 µM; on HDAC9 it was 0.44 µM; on HDAC4, 1 µM; at HDAC5 it was 0.39 µM; against HDAC8, 860 nM. For the same compound, in series [1] (PBMC of healthy donors, time-course, doses down to 10 nM, FIG. 3), the “Duration of effect on H3 acetylation” value is given as “long-lasting”. Further, the “Potency in inducing elevated levels of Histone 3 acetylation” value in series [1] (PBMC of healthy volunteers, even at 100 nM, FIG. 2) is on record as “much more potent than entinostat”. Further, the figures for the AUC in series [2] (setting [3]), in series [2] (setting [4]) and in series [2] (setting [5]) were 117 ng·h/mL, 317 ng·h/mL and 322 ng·h/mL, respectively. Further, the figures for the AUC(0-t) in series [2] (setting [3]), in series [2] (setting [4]) and in series [2] (setting [5]) were 40.5 ng·h/mL, 165 ng·h/mL and 227 ng·h/mL, respectively. Also, the values for the Cmax in series [2] (setting [3]), in series [2] (setting [4]) and in series [2] (setting [5]) were 18.5 ng/mL, 62.6 ng/mL and 78.9 ng/mL, respectively. For the same compound, the half-life was 2.18 h in series [2] (5 mg, A = 5 mg VRx-3996 p.o. and 450 mg Valganciclovir p.o., single dose, read-out: Half-Life (h), geometric mean (converted)); 1.17 h in series [2] (10 mg, B = 10 mg VRx-3996 p.o. and 450 mg Valganciclovir p.o., single dose, read-out: Half-Life (h), geometric mean (converted)); 1.67 h in series [2] (10 mg, C = 10 mg VRx-3996 p.o. and 900 mg Valganciclovir p.o., single dose, read-out: Half-Life (h), geometric mean (converted)); roughly 2 h in series [2] (humans, oral, summary of Table 6, read-out: T1/2 (converted)). Besides, the time of peak concentration (Tmax) in series [2] (setting [3]) was found to be 3 h; in series [2] (setting [4]) it was 2 h; in series [2] (setting [5]), 1 h.
